These are literature values, as cited in paper PMC3019532 (Current radiopharmaceuticals, 2010).

For series [1], the system named is CA20948 rat pancreatic tumor cells. As to conditions: 1 h of incubation with 1 × 10^5 CA20948 cells; cited from earlier work.
The conditions of series [2]: rat, in vivo; cited from earlier work.

Turning to “[^177Lu-DOTA^0,Tyr^3]octreotate [[^177Lu]DOTA-TATE]”, in series [1], the dose internalized entry is reported as “about 0.03%”. In addition, in series [2], the “metabolism, form present in urine” value is “predominantly intact form”.
